Here are results for 4 compounds from patent US20050113427A1, “Use of peroxynirite scavengers or peroxynitrite formation inhibitors that do not diminish nitric oxide synthesis or activity to reverse or prevent premature vascular senescence” (ArgiNOx, Inc., priority 2001, published 2005).

For experiment [1], the system named is Human umbilical vein endothelial cells (HUVEC). In words: SA β-galactosidase staining of HUVEC grown on glycated collagen (premature senescence). Format: cell-based. Particulars: for reversal of premature senescence in HUVECs on GC (SA β-galactosidase staining, FIG. 1): HUVECs on GC 3 days, then compound every 12 hours until staining on day 5, GC dilutions 1:3, 1:6, 1:10 in native collagen; for development of premature senescence (SA β-galactosidase staining) in HUVECs grown on GC: ebselen 1 μmol/L, NOHA 0.1 mmol/L, MnTBAP 2.5 μmol/L, applied day 1, 2 hours after plating, added daily, studied day 3. The procedure:
Detection of SA-β-galactosidase was carried out utilizing the histochemical staining method of Dimitri et al, Proc. Natl. Acad. Sci. USA 92, 9363-9367 as modified by Van der Loo, B., et al, Exp. Cell Res. 241, 309-315 (1998). SA β-galactosidase is a known senescence marker. […] This phenomenon occurred in 12 week and 21 week-old diabetic rats, but was undetectable in age-matched Zucker lean rats (0/24 branches examined).
Human umbilical vein endothelial cells (HUVEC) after four passages were plated on glycated collagen with or without the addition of 0.1 mM ebselen. Application was made on day 1, 2 hours after plating. The extent of SA β-galactosidase staining was evaluated on days 3 and 5 of culture on a glycated or native collagen matrix. In addition, to study the reversibility process, HUVEC were plated on glycated collagen for three days (time sufficient to induce premature senescence), and ebselen was added every 12 hours, starting on day 3, and the cells were examined on day 5.
These concentrations of compounds were chosen based on preliminary experiments testing effects of a range of concentrations for each compound and selecting the lowest one which was efficient but non-cytotoxic. Ebselen, NOHA, and MnTBAP were each applied on day 1, 2 hours after HUVEC plating, added daily, and cells were studied on day 3. HUVECs grown on both glycated and native matrix were examined for the extent of SA β-galactosidase staining. […] In addition, to test for reversibility of senescence by ebselen, NOHA, or MnTBAP, HUVECs were plated on GC for 3 days (time sufficient to induce premature senescence) and thereafter ebselen (ebs), NOHA, or MnTBAP were added every 12 hours, until SA β-galactosidase staining on day 5. […] Dashed lines show the data obtained in HUVECs cultured on native collagen (NC).

Experiment [2] deals with diabetes mellitus. In words: Patient with poorly controlled diabetes mellitus treated with ebselen (Example II). The note with it: ebselen 1-20 mg/kg thrice/day, 6 months later. It counts as in vivo, human. As to the method: A patient with type I (alternatively, a patient with type 2) diabetes mellitus, past medical history of myocardial infarction, peripheral vascular disease, hypertension, proteinuria and non-healing foot ulcer, is receiving insulin, but experiences poor therapeutic response. Patient's fasting blood glucose level is 200 mg/dl. Additional laboratory findings include elevated Hgb Alc level (8.5%) as well as one of the following signs of AGE accumulation: elevated level of pentosidine (2.3 pmol/mg) or elevated level of Amadori serum albumin (41 U/ml). (In some cases, renal biopsy will be performed, which will directly disclose the deposition of AGE in the renal parenchyma and increased proportion of SA-beta-galactosidase-stained endothelial cells). […] Similar results are obtained in similar patients who are administered other ebselen-class compounds.

For experiment [3], the system named is endothelial cells from saphenous vein. Kind of experiment: Artificial vascular graft seeded with endothelial cells cultured with ebselen, implanted in patient (Example VI). Format: in vivo, human. Particulars: cells cultured with 10-100 μg/ml at 35° C. for 2-3 weeks; versus patients not receiving ebselen. As to the method:
A person with peripheral vascular disease is undergoing an elective femoral-to-popliteal bypass surgery utilizing an artificial vascular graft. A saphenous vein is obtained to harvest endothelial cells for expansion and seed onto the surface of a graft. Endothelial cells are isolated from the graft and cultured in a medium containing ebselen or ebselen-class compound at a concentration of 10-100 μg/ml at 35° C. for 2-3 weeks, and cells are seeded onto the graft in the continuous presence of the same concentration of ebselen or ebselen-class compound. Thus prepared, the vascular graft is implanted.

The test system of experiment [4] is Alzheimer's disease. In words: Patient with Alzheimer's disease treated with ebselen or ebselen-class compounds (Example III). It counts as in vivo, human. Particulars: 1-20 mg/kg thrice/day alone or with antioxidant agents and vitamins; two years later. As to the method: A person with no known medical conditions has been experiencing a sustained loss of short-term memory for the past three years. Their CBC, electrolytes and other plasma metabolites are within normal range. There is no vitamin deficiency, no abnormalities in liver function tests, and no previous history of cerebro-vascular accidents. […] Based on these findings the patient is diagnosed with Alzheimer's disease. Therapy with ebselen or other ebselen-class compounds is initiated at doses of 1-20 mg/kg thrice/day alone or in combination with antioxidant agents and vitamins (e.g., ascorbate, alpha-tocopherol, vitamin B6, vitamin B12, folate (folic acid), carotenoids, coenzyme Q10, phytoestrogens (including isoflavonoids), butylated hydroxytoluene (BHT), butylated hydroxyanisole (BHA) and n-3 polyunsaturated fatty acids (PUFA)).

Experiment [5] relates to endothelial cells from saphenous vein. In words: Artificial heart valve seeded with endothelial cells cultured with ebselen, implanted in patient (Example V). It counts as in vivo, human. The note with it: cells cultured with 10-100 μg/ml at 35° C. for 2-3 weeks; versus patients not receiving ebselen. As to the method:
A person with a defective heart valve is being prepared for a surgical replacement of the valve with a prosthetic device. A saphenous vein is obtained to harvest endothelial cells for expansion and seeding onto the surface of a artificial valve. Endothelial cells are isolated from the graft and cultured in a medium containing ebselen or ebselen-class compound at a concentration of 10-100 μg/ml at 35° C. for 2-3 weeks and cells are seeded onto the valve in the continuous presence of the same concentration of ebselen or ebselen-class compound. Thus prepared, the artificial valve is implanted.

The subject of experiment [6] is end stage renal disease. Kind of experiment: Patient with end stage renal disease on chronic hemodialysis treated with ebselen (Example I). It counts as in vivo, human. Particulars: ebselen 1-20 mg/kg thrice/day, 6 months later. An excerpt:
(In some cases, renal biopsy will be performed, which will directly disclose the deposition of AGE in the renal parenchyma and increased proportion of SA-beta-galactosidase-stained endothelial cells). […] In addition, the patient has their arteriovenous fistula revised 3 times due to clotting and stenosis. The patient is also complaining of a non-healing foot ulcer and intermittent claudication, both signs of peripheral vascular disease. […] Similar results are obtained in similar patients who are administered other ebselen-class compounds.

For the compound `N=C(N)NCCC[C@H](N)C(=O)O` [L-arginine], in experiment [1], the “reversal of premature senescence in HUVECs on GC (SA β-galactosidase staining, FIG. 1)” value (“reversal … (SA β-galactosidase staining, FIG. 1)” below) was “reversed senescence at low but not high concentrations of GC”.

In the case of `O=C(O)c1ccc(/C2=C3\C=CC(=N3)/C(c3ccc(C(=O)O)cc3)=c3/cc/c4[n]3[Mn]([Cl])[n]3c2ccc3/C(c2ccc(C(=O)O)cc2)=C2/C=CC(=N2)\C=4c2ccc(C(=O)O)cc2)cc1` [MnTBAP, [5,10,15,20-tetrakis(4-carboxyphenyl)-porphyrinato]manganese (III) chloride], in experiment [1], the “reversal … (SA β-galactosidase staining, FIG. 1)” value is reported as “able to reverse premature senescence at all dilutions of GC” and the “development of premature senescence (SA β-galactosidase staining) in HUVECs grown on GC” value (“development of premature senescence … on GC” for short) was “completely abolished the development of premature senescence”.

For the compound `N=C(NO)NCCC[C@H](N)C(=O)O` [NOHA, N^ω-hydroxyl-L-arginine], in experiment [1], the “reversal … (SA β-galactosidase staining, FIG. 1)” value is “able to reverse premature senescence at all dilutions of GC” and the “development of premature senescence … on GC” value is “completely abolished the development of premature senescence”.

On to `O=c1c2ccccc2[se]n1-c1ccccc1` [ebselen, 2-phenyl-1,2-benzisoselenazol-3(2H)-one], for which the clinical outcome in experiment [2] is given as “significant subjective improvement of coronary symptoms”. The pentosidine after treatment in experiment [2] (before 2.3 pmol/mg) is at most 1.7 pmol/mg. Further, in experiment [2] (before 41 U/ml), the “Amadori serum albumin after treatment” value is at most 30 U/ml. In addition, in experiment [3], the “thrombotic and atheroembolic complications after vascular graft implantation” value was “less thrombotic and atheroembolic complications”. Moreover, the “development of premature senescence (SA β-galactosidase staining) in HUVEC grown on glycated collagen” value in experiment [1] (0.1 mM ebselen applied day 1, 2 hours after plating, evaluated on days 3 and 5) is recorded as “completely abolished the development of premature senescence”. Besides, the “reversal of premature senescence in HUVEC on glycated collagen” value in experiment [1] (HUVEC on glycated collagen 3 days, ebselen added every 12 hours from day 3, examined day 5) was “able to reverse premature senescence at all dilutions of glycated collagen”. For the same compound, in experiment [1], the “reversal … (SA β-galactosidase staining, FIG. 1)” value was “able to reverse premature senescence at all dilutions of GC” and the “development of premature senescence … on GC” value is recorded as “completely abolished the development of premature senescence”. Also, in experiment [4], the “symptoms related to the memory loss” value is “no deterioration and a partial improvement of symptoms related to the memory loss”. In addition, in experiment [5], the “thrombotic and atheroembolic complications after artificial valve implantation” value was “less thrombotic and atheroembolic complications”. In experiment [6], the clinical outcome is given as “significant subjective improvement of coronary symptoms, renal disease, healing of foot ulcer, normalization of blood pressure” and the pentosidine after treatment turned out to be 1.7 pmol/mg. Further, in experiment [6] (before 40 U/ml), the “Amodori serum albumin after treatment” value is 30 U/ml.
